Measured values as given in patent publication US8741347B2, “Method for forming cyclodextrin polymer and lipophilic compound emulsions, resulting emulsions, and compositions including said emulsions” (Centre National de la Recherche Scientifique—CNRS, priority 2009, dated 2014).

What was measured:
[1] = Emulsion formation and stability over time, optical microscopy observation on storage; assay type: physicochemical; details: cyclodextrin monomer 17 mg/ml in water + 10 mg Parsol MCX per ml, pulsed sonication 40 s, stored at 25° C. with tangential agitation
Method: The α-, β- or γ-cyclodextrin monomers are placed in solution in water at a concentration of 17 mg/ml. 10 mg of Parsol® MCX are added to 1 ml of the aqueous solution of α-, β- or γ-cyclodextrin thus prepared. The mixture is then subjected to pulsed sonication for 40 seconds in an ice-cold bath (0° C.). The resulting product is stored at 25° C. with tangential agitation.
The α-, β- or γ-cyclodextrin dimers/trimers are put into solution in water. 10 mg of Parsol® MCX are added to 1 ml of the aqueous solution of α-, β- or γ-cyclodextrin dimer/trimer thus prepared. The mixture is then subjected to pulsed sonication for 40 seconds in an ice-cold bath (0° C.). The resulting product is stored at 25° C. with tangential agitation.
The resulting emulsions are conditioned for storage at 25° C., with tangential agitation, at 37° C. or 4° C. for a varying period ranging from a few days up to a few months before use.
Emulsions (a) to (c) are formed by pulsed sonication for a period of 40 seconds and stored at 25° C.

[2] = Interfacial rheology, interfacial tension by the drop method (Tracker); assay type: physicochemical
Method: The interface (oil/aqueous solution of polymer) elastic behavior is measured from the variation in interfacial tension. The apparatus used for measuring the elastic properties is a Tracker®, manufactured by the company […] Concept. The interfacial tension is measured by the drop method. A deformation of the interfacial area by dilation or by contraction of the volume of the drop creates a variation in the interfacial concentration of the polymers adsorbed at the interface. The Tracker® records the response of the interfacial tension and subsequently establishes the relationship between the deformation of the interface and this response, which describes the rheological behavior of the interface. A deformation of the interfacial area is repeated over time by imposing a sinusoidal variation in the volume of the drop, and thus makes it possible to establish the viscoelastic characteristics of the interface. […] The drop is formed at the end of the capillary connected to a syringe, the plunger of which is controlled by a motor. The needle used has a 180° curve in order to have a rising drop, the density of the oils being in this case lower than that of the aqueous phase. The gauge of the needle is 18, which corresponds to an internal diameter of 0.84 mm and an external diameter of 1.27 mm. The needle is made of Teflon in order to avoid wetting of the drop on the walls of the needle. […]

Which “outcome of attempt to prepare an emulsion” value (“outcome of attempt” below) [1] does the source give for `OC[C@H]1O[C@@H]2O[C@H]3[C@H](O)[C@@H](O)[C@@H](O[C@H]4[C@H](O)[C@@H](O)[C@@H](O[C@H]5[C@H](O)[C@@H](O)[C@@H](O[C@H]6[C@H](O)[C@@H](O)[C@@H](O[C@H]7[C@H](O)[C@@H](O)[C@@H](O[C@H]8[C@H](O)[C@@H](O)[C@@H](O[C@H]1[C@H](O)[C@H]2O)O[C@@H]8CO)O[C@@H]7CO)O[C@@H]6CO)O[C@@H]5CO)O[C@@H]4CO)O[C@@H]3CO` [β-cyclodextrin monomers, β-cyclodextrin] here?
The value was “formation of an insoluble precipitate”.

And the “outcome of attempt” value ([1]; listed as β-monomers)?
Its value is “an insoluble precipitate is formed as early as the first day (day zero)”.

And the “behaviour of the oil/aqueous solution interface” value ([2]; squalene (borage, ginger) drop in aqueous cyclodextrin solution)?
The value was “formation of a rigid membrane at the surface of the squalene drop”.

Which results are given for `OC[C@H]1O[C@@H]2O[C@H]3[C@H](O)[C@@H](O)[C@@H](O[C@H]4[C@H](O)[C@@H](O)[C@@H](O[C@H]5[C@H](O)[C@@H](O)[C@@H](O[C@H]6[C@H](O)[C@@H](O)[C@@H](O[C@H]7[C@H](O)[C@@H](O)[C@@H](O[C@H]8[C@H](O)[C@@H](O)[C@@H](O[C@H]9[C@H](O)[C@@H](O)[C@@H](O[C@H]1[C@H](O)[C@H]2O)O[C@@H]9CO)O[C@@H]8CO)O[C@@H]7CO)O[C@@H]6CO)O[C@@H]5CO)O[C@@H]4CO)O[C@@H]3CO` [γ-cyclodextrins, γ-cyclodextrin]?
outcome of attempt to prepare an emulsion [1]: formation of an emulsion (for two days) and then a precipitation; outcome of attempt to prepare an emulsion ([1]; listed as γ-monomer): initially forms an emulsion and then precipitates rapidly (two days)

Which interfacial tension ([2]; oil drop in aqueous poly-β-CD solution) does the source give for `CC(C)=CCC/C(C)=C/CC/C(C)=C/CC/C=C(\C)CC/C=C(\C)CCC=C(C)C` [squalene] here?
The interfacial tension was “approximately 12 mN/m”.

With `OC[C@H]1O[C@@H]2O[C@H]3[C@H](O)[C@@H](O)[C@@H](O[C@H]4[C@H](O)[C@@H](O)[C@@H](O[C@H]5[C@H](O)[C@@H](O)[C@@H](O[C@H]6[C@H](O)[C@@H](O)[C@@H](O[C@H]7[C@H](O)[C@@H](O)[C@@H](O[C@H]1[C@H](O)[C@H]2O)O[C@@H]7CO)O[C@@H]6CO)O[C@@H]5CO)O[C@@H]4CO)O[C@@H]3CO` [α-cyclodextrin monomers, α-cyclodextrin] as the compound, how does the “outcome of attempt” value [1] read?
The value was “formation of an insoluble precipitate”.

And the “outcome of attempt” value ([1]; listed as α-monomers)?
The value was “an insoluble precipitate is formed as early as the first day (day zero)”.
